Source: patent EP1216701A1, “Process to increase the concentration of meiosis-activating sterols (MAS) in the cholesterol synthesis and the use of potent inhibitors in the process” (Schering Aktiengesellschaft, priority 2000, dated 2002)

Columns and labels:
HepG2 cells = experiment: Accumulation of cholesterol precursors / C29-sterols (MAS) in HepG2 cells, GC/MS (SIM); format: cell-based, Human; conditions: HepG2 cells; for changes in the cholesterol precursor pattern: at 10 µM, compared to potent inhibitors, data not shown; for FF-MAS Dimethylst.-trien (482 m/z) / Methylst.-dien (470 m/z) / T-MAS Dimethylst.-dien (484 m/z): bile acids 160 µM, 12-h, n=3, mean ± SD, ratio to internal standard epicoprostanol; for Dienol (m/z 486) / Enol T-MAS (m/z 484) / Trienol FF-MAS (m/z 482): Conc. 10 µM (combinations 10 + 10 µM), 12 h, n=2, ± SD
Procedure: Human hepatoma HepG2 cells were cultured to confluency in 60-mm dishes in phenol-red-free Dulbecco's modified Eagle's medium (DMEM) containing Pen-Strep (100 µg/ml), glucose (10 mM), sodium bicarbonate (45 mM) and glutamine (4 mM) supplemented with 10% fetal calf serum as described previously (24). At the beginning of the experiment the medium was changed to serum-free DMEM supplemented with 10% lipid-free "controlled process serum replacement" (CPSR-1). Compounds were added from ethanolic stock solutions to produce final ethanol concentrations of 0.1-0.3% v/v. Controls received the same amount of ethanol. Aminotriazole was added in an aqueous solution. Slices of rat testis (25 µm; 25-50 mg wet weight) were incubated under the same conditions in a shaking water bath (37°C). For isotopomer spectral analysis (ISA) of lathosterol, 1-^13C-acetate was added in an aqueous solution to a final concentration of 1 mM.
(§1) Cells were washed three times with ice cold PBS (pH 7.4) (once with 2 mg/ml BSA and twice with PBS alone). Epicoprostanol (1 µg in 50 µl of hexane) was added as internal standard to each sample. Sterols were extracted in hexane/isopropanol (3:2 v/v; two times with 4 ml). After drying under nitrogen and alkaline hydrolysis (1 N NaOH in 80% ethanol, 1.5 h at 70°C), the sterols were extracted with cyclohexane (two times with 3 ml). After drying under nitrogen, sterols were converted to their trimethylsilyl (TMS) derivatives by adding 100 µl bis(trimethylsilyl)trifluoracetamide (Pierce)/n-decane (1:1; v/v) and heating for 1 h at 70°C in a conical glass tube. This solution (1-2 µl) was used for gas-chromatography/mass-spectrometry (GC/MS). Rat testes (0.05-0.15 g) were homogenized manually, and lipids were extracted in hexane/isopropanol (3:2 v/v; two times with 4 ml). The extracts were deproteinized with acetone (3 ml) and processed as described above. The observed sterol levels in testis were normalized to correspond to 0.1 g of tissue (wet weight).
(§2) Gas-chromatography was done in the splitless mode with temperature programming as follows: 150°C for 1 min, followed by 20°C/min up to 260°C and 10°C/min up to 280°C (hold for 15 min). Mass spectral data were collected either in the full-scan mode (m/z 50-550) or by selective ion monitoring (SIM). For SIM analyses the electron multiplier voltage was raised by 300 V after the elution of lathosterol to increase the sensitivity of detection for lanosterol, dihydrolanosterol, methylsterols, dimethylsterols and plant sterols. The internal standard epicoprostanol was monitored at m/z 370. […] Peak integration was performed manually, and sterols were quantified from SIM analyses against the internal standard. Unless stated otherwise, MAS amounts are given as a percentage of the control.

liver slices = experiment: Influence of bile acids on methylsterols and dimethylsterols in liver slices; format: cell-based; conditions: bile acids 160 µM for 9-h, n=2 for UDCA, CDCA, DCA, n=3 for CA and LCA, ratio to campesterol
Procedure: as §1, §2

Δ24-reductase = molecular target: T1, Δ24-reductase (Homo sapiens, UniProt Q15392); experiment: Δ24-reductase assay (conversion of lanosterol to dihydrolanosterol in the presence of miconazole); format: cell-based; conditions: HepG2 cells; conversion of lanosterol to dihydrolanosterol with added miconazole
T1 construct: endogenous in cells; host or cells: HepG2
T1 sequence (Q15392 23-516): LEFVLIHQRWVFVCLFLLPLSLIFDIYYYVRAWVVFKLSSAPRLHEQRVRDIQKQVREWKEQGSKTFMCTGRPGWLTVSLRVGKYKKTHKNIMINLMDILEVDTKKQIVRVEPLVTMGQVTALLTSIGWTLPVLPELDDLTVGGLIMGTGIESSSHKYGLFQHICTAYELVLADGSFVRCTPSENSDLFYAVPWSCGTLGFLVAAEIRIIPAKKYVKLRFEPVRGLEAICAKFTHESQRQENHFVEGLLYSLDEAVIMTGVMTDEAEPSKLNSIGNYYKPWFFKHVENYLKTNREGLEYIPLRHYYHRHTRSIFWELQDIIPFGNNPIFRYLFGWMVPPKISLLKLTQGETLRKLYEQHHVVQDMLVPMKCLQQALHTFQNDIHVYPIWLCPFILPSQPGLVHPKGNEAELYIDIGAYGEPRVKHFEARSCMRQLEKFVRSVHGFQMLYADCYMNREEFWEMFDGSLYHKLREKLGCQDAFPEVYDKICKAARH
Procedure: HepG2 cells were incubated for 12 h with 10 µM simvastatin (a kind gift from M. Stapff (MSD, Germany)) to deplete cholesterol precursors. Thereafter, the medium was changed to one containing 10 µM simvastatin, 10 µM miconazole (an inhibitor of 14α-demethylation) and 6 µg/dish lanosterol. After 12 h incubation, neutral sterols were extracted as described above, and the samples were monitored for lanosterol (m/z 498 (M^+) and m/z 393 (M-TMSOH-CH3)) and dihydrolanosterol (m/z 500 (M^+) and m/z 395 (M-TMSOH-CH3)) by GC/MS. Dihydrolanosterol was quantified by comparing the ratio of SIM abundances at m/z 395 and 370 (epicoprostanol) against a standard curve constructed from SIM results on mixtures of authentic dihydrolanosterol and epicoprostanol. Desmosterol was quantified analogously by SIM.

C[C@]12CCC(=O)C=C1CC[C@@H]1[C@@H]2CC[C@]2(C)C(=O)CC[C@@H]12 [androstenedione, 4-Androsten-3,17-dione]
changes in the cholesterol precursor pattern (HepG2 cells): only minor changes

C[C@H](CCC(=O)O)[C@H]1CC[C@H]2[C@@H]3[C@@H](O)C[C@@H]4C[C@H](O)CC[C@]4(C)[C@H]3CC[C@]12C [UDCA, Ursodeoxycholic acid]
FF-MAS Dimethylst.-trien (482 m/z) (HepG2 cells): 309 ± 51 % of control | Methylst.-dien (470 m/z) (HepG2 cells): 509 ± 19 % of control | T-MAS Dimethylst.-dien (484 m/z) (HepG2 cells): 655 ± 84 % of control | FF-MAS Dimethylst.-trien (482 m/z) (liver slices): 204 % of control | Methylst.-dien (470 m/z) (liver slices): 235 % of control | T-MAS Dimethylst.-dien (484 m/z) (liver slices): 633 % of control

CC(=O)[C@@]1(O)CC[C@H]2[C@@H]3CC=C4C[C@@H](O)CC[C@]4(C)[C@H]3CC[C@@]21C [17α-OH-Pregnenolone, 17α-Hydroxy-pregnenolone]
Dienol (m/z 486) (HepG2 cells): 52 ± 6 % of control | Enol T-MAS (m/z 484) (HepG2 cells): 780 ± 57 % of control | Trienol FF-MAS (m/z 482) (HepG2 cells): 242 ± 19 % of control | suppression of the Δ24 reduction step (accumulation of desmosterol) (HepG2 cells; absence of miconazole, 10 µM potent inhibitors or 1 µM tamoxifen for 12 h): strongly suppressed | order of suppression of Δ24 reduction (Δ24-reductase): pregnenolone > progesterone > 17α-OH-pregnenolone >> 17α-OH-progesterone

Medroxyprogesterone
Dienol (m/z 486) (HepG2 cells): 509 ± 50 % of control | Enol T-MAS (m/z 484) (HepG2 cells): 1181 ± 90 % of control | Trienol FF-MAS (m/z 482) (HepG2 cells): 227 ± 11 % of control

C[C@H](CCC(=O)O)[C@H]1CC[C@H]2[C@@H]3[C@H](O)C[C@@H]4C[C@H](O)CC[C@]4(C)[C@H]3CC[C@]12C [CDCA, Chenodeoxycholic acid]
FF-MAS Dimethylst.-trien (482 m/z) (HepG2 cells): 197 ± 10 % of control | Methylst.-dien (470 m/z) (HepG2 cells): 187 ± 5 % of control | T-MAS Dimethylst.-dien (484 m/z) (HepG2 cells): 234 ± 11 % of control | FF-MAS Dimethylst.-trien (482 m/z) (liver slices): 128 % of control | Methylst.-dien (470 m/z) (liver slices): 181 % of control | T-MAS Dimethylst.-dien (484 m/z) (liver slices): 296 % of control

COc1ccc(CCN(C)CCCC(C#N)(c2ccc(OC)c(OC)c2)C(C)C)cc1OC (stereo not shown) [Verapamil]
Dienol (m/z 486) (HepG2 cells): 18 ± 4 % of control | Enol T-MAS (m/z 484) (HepG2 cells): 416 ± 79 % of control | Trienol FF-MAS (m/z 482) (HepG2 cells): 498 ± 103 % of control

C[C@]12CC[C@H](O)CC1=CC[C@@H]1[C@@H]2CC[C@]2(C)C(=O)CC[C@@H]12 [dehydroepiandrosterone]
changes in the cholesterol precursor pattern (HepG2 cells): only minor changes
